Assay [1] concerns the target T1, Procathepsin L (Homo sapiens, UniProt P07711). As to the kind of experiment: Inhibition of human Cathepsin L assessed as residual activity using Cbz-FR-AMC as substrate at 1 uM preincubated for 20 mins at room temperature followed by substrate addition and measured after 10 mins by FRET assay. As to conditions: time 30.0 min.
Target sequence in this assay (P07711 114-333 limits assumed): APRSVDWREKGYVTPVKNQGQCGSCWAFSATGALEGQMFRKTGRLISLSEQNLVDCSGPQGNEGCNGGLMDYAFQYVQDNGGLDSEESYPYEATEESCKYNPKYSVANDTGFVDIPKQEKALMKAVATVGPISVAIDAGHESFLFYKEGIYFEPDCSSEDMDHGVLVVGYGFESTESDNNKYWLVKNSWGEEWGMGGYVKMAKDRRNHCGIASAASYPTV
In assay [2] the test system is Severe acute respiratory syndrome coronavirus 2. As to the kind of experiment: Inhibition of N-terminal sumo/his-6 tagged SARS CoV-2 MPro (3264 to 3569 residues) extracted from Escherichia coli BL21 Gold (DE3) cells assessed as residual activity using Dabcyl-KTSAVLQSGFRKMEE-dans as substrate at 1 uM incubated for 10 mins by FRET assay relative to control.
The target in assay [3] is T1, Procathepsin L. As to the kind of experiment: Binding affinity to human Cathepsin L assessed as inhibition constant using Cbz-FR-AMC as substrate preincubated for 20 mins at room temperature followed by substrate addition measured after 10 mins by FRET assay.
Target sequence in this assay (P07711 whole entry, the tested form may be a part): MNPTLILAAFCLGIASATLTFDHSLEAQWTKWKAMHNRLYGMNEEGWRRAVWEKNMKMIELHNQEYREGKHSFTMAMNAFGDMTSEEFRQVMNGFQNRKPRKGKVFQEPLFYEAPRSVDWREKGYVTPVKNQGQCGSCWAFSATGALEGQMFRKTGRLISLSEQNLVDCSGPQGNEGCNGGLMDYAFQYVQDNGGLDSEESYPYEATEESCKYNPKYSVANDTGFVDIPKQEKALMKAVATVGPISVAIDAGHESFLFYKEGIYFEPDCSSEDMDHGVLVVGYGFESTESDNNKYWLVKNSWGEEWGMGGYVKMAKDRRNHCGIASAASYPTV
Assay [4] deals with Huh-7. As to the kind of experiment: Cytotoxicity against human Huh-7 cells overexpressing human ACE2 incubated for 24 hrs by MTT assay. The assay is classed as functional.
Assay [5] can be described thus: Binding affinity to N-terminal sumo/his-6 tagged SARS CoV-2 MPro (3264 to 3569 residues) extracted from Escherichia coli BL21 Gold (DE3) cells assessed as inhibition constant using Dabcyl-KTSAVLQSGFRKMEE-dans as substrate incubated for 10 mins by FRET assay. Also on record: species or system Severe acute respiratory syndrome coronavirus 2.
Assay [6] has as its target Cathepsin B (Homo sapiens, UniProt P07858). As to the kind of experiment: Binding affinity to human Cathepsin B assessed as inhibition constant using Cbz-FR-AMC as substrate preincubated for 20 mins at room temperature followed by substrate addition and measured after 10 mins by FRET assay.
Assay [7] concerns the target Cathepsin S (Homo sapiens, UniProt P25774). As to the kind of experiment: Binding affinity to human Cathepsin S assessed as inhibition constant using Cbz-VVR-AMC as substrate preincubated for 20 mins at room temperature followed by substrate addition and measured after 10 mins by FRET assay.

Data on 19 molecules can be found in ChEMBL document CHEMBL6114939, “Identification of Dual Inhibitors Targeting Main Protease (Mpro) and Cathepsin L as Potential Anti-SARS-CoV-2 Agents” (ACS Med Chem Lett, 2024).

Sequence of Cathepsin S (P25774 whole entry): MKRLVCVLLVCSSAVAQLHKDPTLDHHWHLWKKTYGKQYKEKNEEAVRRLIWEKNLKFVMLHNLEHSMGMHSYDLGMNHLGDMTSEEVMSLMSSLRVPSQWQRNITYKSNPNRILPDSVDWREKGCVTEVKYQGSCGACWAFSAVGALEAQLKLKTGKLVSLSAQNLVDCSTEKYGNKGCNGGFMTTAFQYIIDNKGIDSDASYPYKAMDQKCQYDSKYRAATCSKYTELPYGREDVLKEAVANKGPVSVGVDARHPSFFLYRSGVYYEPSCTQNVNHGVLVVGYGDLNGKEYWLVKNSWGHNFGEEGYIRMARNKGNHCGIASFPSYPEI

For the molecule `CC(=O)/C=C/[C@H](C[C@@H]1CCNC1=O)NC(=O)[C@H](CC(C)(C)C)NC(=O)c1cccc(F)c1`, the Activity in assay [1] was 34.7%; in assay [2], 77%.
Broadly, the Ki is the equilibrium dissociation constant of an inhibitor or competing ligand from its target. What is called CC50 is the concentration that lowers cell viability or growth by half. High values mean lower toxicity to the cells, low ones greater toxicity to the cells. On to `CC(=O)/C=C/[C@H](C[C@@H]1CCNC1=O)NC(=O)[C@H](CC1CCCCC1)NC(=O)c1ccccc1F`, for which the inhibition constant Ki in assay [3] worked out at 0.012 µM; in assay [5] it was 1.61 µM. The molecule further showed a CC50 in assay [4] of 12.6 µM. The results for the Activity in assay [1] and in assay [2] were 3.4% and 56.3%, respectively.
In the same order, the values of `CC(=O)/C=C/[C@H](C[C@@H]1CCNC1=O)NC(=O)[C@H](CC1CCCCC1)NC(=O)c1cccc(F)c1` are 0.004 µM, 3.66 µM, 22.6 µM, 3.6% and 64.2%.
On to `CC(=O)/C=C/[C@H](C[C@@H]1CCNC1=O)NC(=O)[C@H](CC(C)C)NC(=O)c1cccc(F)c1`, for which the figures for the Activity in assay [1] and in assay [2] were 10.9% and 99.5%, respectively.
The corresponding values for `CCCC[C@H](NC(=O)c1cccc(F)c1)C(=O)N[C@H](/C=C/C(C)=O)C[C@@H]1CCNC1=O` are 6.81% and 86%.
In the same order, the values of `CCC[C@H](NC(=O)c1ccccc1F)C(=O)N[C@H](/C=C/C(C)=O)C[C@@H]1CCNC1=O` are 12% and 101%.
The corresponding values for `CC(=O)/C=C/[C@H](C[C@@H]1CCNC1=O)NC(=O)[C@H](CC(C)(C)C)NC(=O)c1ccccc1F` are 33.5% and 89.4%.
As to `CC(=O)/C=C/[C@H](C[C@@H]1CCNC1=O)NC(=O)[C@H](CC(C)(C)C)NC(=O)c1ccc(F)cc1`, the Ki was 7.7 µM in assay [6], 0.701 µM in assay [3], 0.0007 µM in assay [7] and 5.54 µM in assay [5]. This molecule registered a CC50 in assay [4] above 100 µM. The Activity in assay [1] amounted to 45.1%; in assay [2] it was 68.8%.
Consider `CC(=O)/C=C/[C@H](C[C@@H]1CCNC1=O)NC(=O)[C@H](CC(C)C)NC(=O)c1ccc(F)cc1`, for which the Ki is 10.9 µM in assay [6], 0.02 µM in assay [3], 0.00623 µM in assay [7] and 5.58 µM in assay [5]. The molecule also registered a 50% cytotoxic concentration (CC50) in assay [4] above 100 µM. The Activity in assay [1] was determined as 5.8%; in assay [2], 64.9%.
For `CCOC(=O)/C=C/[C@H](C[C@@H]1CCNC1=O)NC(=O)[C@H](Cc1ccccc1)NC(=O)[C@@H](Cc1ccc(F)cc1)NC(=O)OC(C)(C)C`, the Ki in assay [3] turned out to be 0.145 µM; in assay [5] it was 1.8 µM.
On to `CC(=O)/C=C/[C@H](C[C@@H]1CCNC1=O)NC(=O)[C@H](CC1CC1)NC(=O)c1ccccc1F`, for which the inhibition constant (Ki) is 0.294 µM in assay [3], 0.0954 µM in assay [7] and 2.95 µM in assay [5]. This molecule also registered a CC50 in assay [4] above 100 µM. In addition, the results for the Activity in assay [1] and in assay [2] were 23.2% and 57.9%, respectively.
As for `CCCC[C@H](NC(=O)c1ccccc1F)C(=O)N[C@H](/C=C/C(C)=O)C[C@@H]1CCNC1=O`, the Activity was 8.66% in assay [1] and 98.7% in assay [2].
In the same order, the values of `CC(=O)/C=C/[C@H](C[C@@H]1CCNC1=O)NC(=O)[C@H](CC(C)C)NC(=O)c1ccccc1F` are 5.3% and 88.7%.
In the same order, the values of `CC(=O)/C=C/[C@H](C[C@@H]1CCNC1=O)NC(=O)[C@H](CC1CC1)NC(=O)c1cccc(F)c1` are 9.76% and 92.7%.
In the same order, the values of `CCC[C@H](NC(=O)c1cccc(F)c1)C(=O)N[C@H](/C=C/C(C)=O)C[C@@H]1CCNC1=O` are 8.61% and 101%.
Turning to `CCCC[C@H](NC(=O)c1ccc(F)cc1)C(=O)N[C@H](/C=C/C(C)=O)C[C@@H]1CCNC1=O`, the Ki was found to be 0.141 µM in assay [3] and 10.7 µM in assay [5]. For the same molecule, the CC50 in assay [4] is above 100 µM. Moreover, the values for the Activity in assay [1] and in assay [2] were 15.2% and 58.8%, respectively.
Take `CC(=O)/C=C/[C@H](C[C@@H]1CCNC1=O)NC(=O)[C@H](CC1CC1)NC(=O)c1ccc(F)cc1`: the Activity came to 26.8% in assay [1] and 83.7% in assay [2].
`CC(=O)/C=C/[C@H](C[C@@H]1CCNC1=O)NC(=O)[C@H](CC1CCCCC1)NC(=O)c1ccc(F)cc1`: the Ki in assay [3] stood at 0.017 µM; in assay [5], 3.14 µM. The half-maximal cytotoxic concentration (CC50) in assay [4] turned out to be 46.9 µM. Also, the Activity in assay [1] turned out to be 5%; in assay [2], 68.2%.
For `CCC[C@H](NC(=O)c1ccc(F)cc1)C(=O)N[C@H](/C=C/C(C)=O)C[C@@H]1CCNC1=O`, the values for the Activity in assay [1] and in assay [2] were 19.1% and 96.5%, respectively.
